Reference: patent publication US20130116263A1, “PAK INHIBITORS FOR THE TREATMENT OF CELL PROLIFERATIVE DISORDERS” (AFRAXIS, INC., priority 2011, published 2013)

Key:
Format in all cases: biochemical
[1] = target: T1, PAK1 (Homo sapiens, UniProt Q13153); test: Additional in vitro PAK1 inhibition assay at ATP 10 uM and 1 mM
Experimental: (§1) Similar in vitro PAK1 and PAK-4 inhibition assays are conducted in compounds for the treatment of cancer, but under ATP concentrations of 10 uM and 1 mM.

[2] = target: T2, PAK4 (Homo sapiens, UniProt O96013); test: Additional in vitro PAK-4 inhibition assay at ATP 10 uM and 1 mM; settings: 10 μM ATP; read-out: PAK4 IC50 (10 μM ATP)
Experimental: as §1

[3] = target: T1, PAK1; test: In vitro PAK inhibition assay (Z'-LYTE, SelectScreen), PAK1; settings: read-out: PAK1 IC50
Summary of the method: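 The PAK1 reaction on Ser/Thr 19 peptide runs 60 min at room temperature in 50 mM HEPES pH 7.5 with 10 mM MgCl2, 1 mM EGTA, 0.01% BRIJ-35; Z'-LYTE fluorescence read after 60 min development.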

[4] = target: PAK2 (PAK65) (Homo sapiens, UniProt Q13177); test: In vitro PAK inhibition assay (Z'-LYTE, SelectScreen), PAK2; settings: read-out: PAK2 IC50
Summary of the method: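 Z'-LYTE FRET readout using Ser/Thr 20 peptide (2 μM) with 0.29–6 ng PAK2 in 50 mM HEPES pH 7.5, 0.01% BRIJ-35, 10 mM MgCl2, 1 mM EGTA, 1% DMSO. Reaction and development each ran 60 min at room temperature.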

[5] = target: PAK3 (Homo sapiens, UniProt O75914); test: In vitro PAK inhibition assay (Z'-LYTE, SelectScreen), PAK3; settings: read-out: PAK3 IC50
Summary of the method: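 Z'-LYTE FRET format: PAK3 with Ser/Thr 20 peptide in 50 mM HEPES pH 7.5, 0.01% BRIJ-35, 10 mM MgCl2, 1 mM EGTA, 1% DMSO final. Kinase reaction 60 min at room temperature, then 60 min development and fluorescence read.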

[6] = target: T2, PAK4; test: In vitro PAK inhibition assay (Z'-LYTE, SelectScreen), PAK4
Summary of the method: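 Z'-LYTE FRET assay with 0.1-0.75 ng PAK-4 and 2 μM Ser/Thr 20 peptide in 50 mM HEPES pH 7.5, 10 mM MgCl2, 1 mM EGTA, 0.01% BRIJ-35, 1% DMSO; ATP near apparent Km. 1 h kinase reaction at room temperature, then 1 h development; IC50 from 10-point 3-fold titrations fitted to a sigmoidal dose-response.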

[7] = 10 μM ATP, read-out: PAK1 IC50 (10 μM ATP)
[8] = 1 mM ATP, read-out: PAK1 IC50 (1 mM ATP)

T2 sequence (O96013 whole entry): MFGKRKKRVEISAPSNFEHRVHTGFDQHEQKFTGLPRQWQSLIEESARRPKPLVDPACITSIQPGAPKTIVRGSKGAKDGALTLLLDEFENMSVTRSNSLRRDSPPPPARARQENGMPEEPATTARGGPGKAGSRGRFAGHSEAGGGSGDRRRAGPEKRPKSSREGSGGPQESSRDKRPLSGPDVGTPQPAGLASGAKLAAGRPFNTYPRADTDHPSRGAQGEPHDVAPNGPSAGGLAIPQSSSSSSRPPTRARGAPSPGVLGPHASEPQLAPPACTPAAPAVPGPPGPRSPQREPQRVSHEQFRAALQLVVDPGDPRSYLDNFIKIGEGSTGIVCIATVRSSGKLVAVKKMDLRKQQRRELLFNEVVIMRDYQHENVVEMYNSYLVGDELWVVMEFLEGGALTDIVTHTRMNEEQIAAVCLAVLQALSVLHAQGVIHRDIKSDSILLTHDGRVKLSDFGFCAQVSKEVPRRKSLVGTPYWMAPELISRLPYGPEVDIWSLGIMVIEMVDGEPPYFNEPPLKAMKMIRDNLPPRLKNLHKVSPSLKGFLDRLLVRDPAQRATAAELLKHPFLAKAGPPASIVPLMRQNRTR
PAK2 (PAK65), sequence (Q13177 whole entry): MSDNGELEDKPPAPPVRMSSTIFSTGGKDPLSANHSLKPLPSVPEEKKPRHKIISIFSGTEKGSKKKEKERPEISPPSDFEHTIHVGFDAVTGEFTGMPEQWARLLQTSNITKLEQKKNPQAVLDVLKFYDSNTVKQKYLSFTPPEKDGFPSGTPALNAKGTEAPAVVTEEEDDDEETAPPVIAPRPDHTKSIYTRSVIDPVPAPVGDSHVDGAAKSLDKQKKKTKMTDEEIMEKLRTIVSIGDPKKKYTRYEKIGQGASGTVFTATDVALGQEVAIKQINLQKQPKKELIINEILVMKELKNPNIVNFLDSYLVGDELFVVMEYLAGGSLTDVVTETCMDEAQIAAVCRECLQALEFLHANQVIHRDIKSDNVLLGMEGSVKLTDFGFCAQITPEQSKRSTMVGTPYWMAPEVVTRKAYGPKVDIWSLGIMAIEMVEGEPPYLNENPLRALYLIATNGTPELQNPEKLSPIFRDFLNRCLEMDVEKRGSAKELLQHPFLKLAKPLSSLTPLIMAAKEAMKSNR
PAK3, sequence (O75914 1-544 isoform O75914-2): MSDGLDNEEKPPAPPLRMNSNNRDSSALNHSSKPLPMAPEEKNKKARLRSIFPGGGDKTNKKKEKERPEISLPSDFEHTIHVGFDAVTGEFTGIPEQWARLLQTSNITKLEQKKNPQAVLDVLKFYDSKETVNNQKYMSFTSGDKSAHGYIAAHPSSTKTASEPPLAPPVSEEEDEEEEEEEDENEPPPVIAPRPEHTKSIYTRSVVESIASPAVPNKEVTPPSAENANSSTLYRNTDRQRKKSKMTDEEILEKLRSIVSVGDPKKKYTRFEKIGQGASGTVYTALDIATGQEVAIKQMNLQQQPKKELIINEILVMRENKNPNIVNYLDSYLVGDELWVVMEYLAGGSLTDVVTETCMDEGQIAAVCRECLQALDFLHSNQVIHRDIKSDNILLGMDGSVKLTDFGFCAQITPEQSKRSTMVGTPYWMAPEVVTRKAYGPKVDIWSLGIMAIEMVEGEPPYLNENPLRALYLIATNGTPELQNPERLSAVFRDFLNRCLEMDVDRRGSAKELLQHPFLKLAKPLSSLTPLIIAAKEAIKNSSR
T1 sequence (Q13153 whole entry): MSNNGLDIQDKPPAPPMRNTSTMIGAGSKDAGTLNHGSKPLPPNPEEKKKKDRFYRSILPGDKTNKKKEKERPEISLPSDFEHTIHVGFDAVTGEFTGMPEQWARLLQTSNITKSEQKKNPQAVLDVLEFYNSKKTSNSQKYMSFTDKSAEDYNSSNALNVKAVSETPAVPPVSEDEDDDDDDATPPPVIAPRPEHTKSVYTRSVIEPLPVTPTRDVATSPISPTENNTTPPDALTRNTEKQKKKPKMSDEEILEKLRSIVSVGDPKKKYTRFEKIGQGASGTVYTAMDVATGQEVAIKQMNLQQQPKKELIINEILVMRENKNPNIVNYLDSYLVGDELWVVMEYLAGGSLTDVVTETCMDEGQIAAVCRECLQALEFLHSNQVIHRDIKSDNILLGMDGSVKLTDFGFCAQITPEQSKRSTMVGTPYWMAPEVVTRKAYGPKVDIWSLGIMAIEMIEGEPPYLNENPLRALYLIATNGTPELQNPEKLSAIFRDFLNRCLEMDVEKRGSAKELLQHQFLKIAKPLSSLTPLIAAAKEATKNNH

| Compound | IC50 [1, 7] | IC50 [1, 8] | IC50 [2] | IC50 [3] | IC50 [4] | IC50 [5] | IC50 [6] |
| --- | --- | --- | --- | --- | --- | --- | --- |
| Cc1nc(-c2ccc(-c3cc4cnc(NC5CCOCC5)nc4n(CC(=O)NC4CCCNC4)c3=O)c(Cl)c2)no1 (stereo not shown) | 50 to 500 nM | ≥ 5000 nM | ≥ 5000 nM |  |  |  |  |
| CCn1c(=O)c(-c2ccc(-c3noc(C)n3)cc2Cl)cc2cnc(NN3CCOCC3)nc21 | 500 to 5000 nM | ≥ 5000 nM | ≥ 5000 nM |  |  |  |  |
| CCn1c(=O)c(-c2ccc(-c3noc(C)n3)cc2Cl)cc2cnc(NC3CC3)nc21 | 50 to 500 nM | ≥ 5000 nM | ≥ 5000 nM |  |  |  |  |
| Cc1nc(-c2ccc(-c3cc4cnc(NC5CCOCC5)nc4n(CC(=O)N4CCC(N)CC4)c3=O)c(Cl)c2)no1 | 50 to 500 nM | ≥ 5000 nM | ≥ 5000 nM |  |  |  |  |
| Cc1nc(-c2ccc(-c3cc4cnc(NC5CCOCC5)nc4n(CC(=O)NCc4ccncc4)c3=O)c(Cl)c2)no1 [drawing 348] | 50 to 500 nM | ≥ 5000 nM | ≥ 5000 nM |  |  |  |  |
| Cc1nc(-c2ccc(-c3cc4cnc(NC5CCOCC5)nc4n(CC4CCNCC4)c3=O)c(Cl)c2)no1 [drawing 340] | < 50 nM | 500 to 5000 nM | ≥ 5000 nM |  |  |  |  |
| CCn1c(=O)c(-c2ccc(-c3noc(C)n3)cc2Cl)cc2cnc(NC3COC3)nc21 | 50 to 500 nM | ≥ 5000 nM | ≥ 5000 nM |  |  |  |  |
| CCn1c(=O)c(-c2ccc(-c3noc(C)n3)cc2Cl)cc2cnc(NCC3CCOCC3)nc21 | 500 to 5000 nM | ≥ 5000 nM | ≥ 5000 nM |  |  |  |  |
| CCn1c(=O)c(-c2ccc(-c3noc(C)n3)cc2Cl)cc2cnc(N[C@@H]3CCO[C@@H]3N3CCN(C)CC3)nc21 | 50 to 500 nM | ≥ 5000 nM | ≥ 5000 nM |  |  |  |  |
| CCCCn1c(=O)c(-c2ccc(-c3noc(C)n3)cc2Cl)cc2cnc(NC3CCOCC3)nc21 | 50 to 500 nM | ≥ 5000 nM | ≥ 5000 nM |  |  |  |  |
| Cc1nc(-c2ccc(-c3cc4cnc(NC5CCOCC5)nc4n(Cc4ccccc4)c3=O)c(Cl)c2)no1 | 500 to 5000 nM | ≥ 5000 nM | ≥ 5000 nM |  |  |  |  |
| CCn1c(=O)c(-c2ccc(-c3noc(C)n3)cc2Cl)cc2cnc(N[C@@H]3C[C@H]3C)nc21 | 50 to 500 nM | < 50 nM | < 50 nM |  |  |  |  |
| CCN1CCC(Cn2c(=O)c(-c3ccc(-c4noc(C)n4)cc3Cl)cc3cnc(NC4CCOCC4)nc32)CC1 | 50 to 500 nM | ≥ 5000 nM | ≥ 5000 nM |  |  |  |  |
| CCn1c(=O)c(-c2ccc(-c3noc(C)n3)cc2Cl)cc2cnc(NCc3cccnc3)nc21 | 500 to 5000 nM | ≥ 5000 nM | ≥ 5000 nM |  |  |  |  |
| CCn1c(=O)c(-c2ccc(-c3noc(C)n3)cc2Cl)cc2cnc(NCCCN(C)C)nc21 | 500 to 5000 nM | ≥ 5000 nM | ≥ 5000 nM |  |  |  |  |
| CCn1c(=O)c(-c2ccc(-c3noc(C)n3)cc2Cl)cc2cnc(NC3CCN(C)C3=O)nc21 (stereo not shown) | ≥ 5000 nM | ≥ 5000 nM | ≥ 5000 nM |  |  |  |  |
| CCO[C@H]1COC[C@@H]1Nc1ncc2cc(-c3ccc(-c4noc(C)n4)cc3Cl)c(=O)n(CC)c2n1 | 500 to 5000 nM | ≥ 5000 nM | ≥ 5000 nM |  |  |  |  |
| CCn1c(=O)c(-c2ccc(-c3noc(C)n3)cc2Cl)cc2cnc(NCc3ccccn3)nc21 | 500 to 5000 nM | ≥ 5000 nM | ≥ 5000 nM |  |  |  |  |
| Cc1nc(-c2ccc(-c3cc4cnc(NC5CCOCC5)nc4n(C4CC4)c3=O)c(Cl)c2)no1 | 50 to 500 nM | ≥ 5000 nM | ≥ 5000 nM |  |  |  |  |
| CCn1c(=O)c(-c2ccc(-c3noc(C)n3)cc2Cl)cc2cnc(NC3CC3c3ccccc3)nc21 (stereo not shown) | 500 to 5000 nM | 500 to 5000 nM | 500 to 5000 nM |  |  |  |  |
| CCNc1ncc2cc(-c3ccc(-c4noc(C)n4)cc3Cl)c(=O)n(CC)c2n1 | 500 to 5000 nM | ≥ 5000 nM | ≥ 5000 nM |  |  |  |  |
| Cc1nc(-c2ccc(-c3cc4cnc(NC5CCOCC5)nc4n(Cc4cccc(CN)c4)c3=O)c(Cl)c2)no1 [drawing 342] | < 50 nM | 50 to 500 nM | ≥ 5000 nM |  |  |  |  |
| Cc1nc(-c2ccc(-c3cc4cnc(NC5CC5)nc4n(Cc4cccc(CN(C)C)c4)c3=O)c(Cl)c2)no1 | 50 to 500 nM | 500 to 5000 nM | ≥ 5000 nM |  |  |  |  |

| Compound | IC50 [1, 7] | IC50 [1, 8] | IC50 [2] | IC50 [3] | IC50 [4] | IC50 [5] | IC50 [6] |
| --- | --- | --- | --- | --- | --- | --- | --- |
| Cc1nc(-c2ccc(-c3cc4cnc(NC5CCOCC5)nc4n(CC(=O)NC4CCNCC4)c3=O)c(Cl)c2)no1 | 500 to 5000 nM | ≥ 5000 nM | ≥ 5000 nM |  |  |  |  |
| CCn1c(=O)c(-c2ccc(-c3noc(C)n3)cc2Cl)cc2cnc(NC3COC4(CCCC4)C3)nc21 (stereo not shown) | 500 to 5000 nM | ≥ 5000 nM | 500 to 5000 nM |  |  |  |  |
| CCn1c(=O)c(-c2ccc(-c3noc(C)n3)cc2Cl)cc2cnc(N[C@H]3COC[C@H]3O)nc21 | 500 to 5000 nM | ≥ 5000 nM | ≥ 5000 nM |  |  |  |  |
| Cc1nc(-c2ccc(-c3cc4cnc(NC5CCOCC5)nc4n(CC(=O)N4CCC(CN)CC4)c3=O)c(Cl)c2)no1 [drawing 352] | < 50 nM | ≥ 5000 nM | ≥ 5000 nM |  |  |  |  |
| CCn1c(=O)c(-c2ccc(-c3noc(C)n3)cc2Cl)cc2cnc(NCCCNC(C)=O)nc21 | 500 to 5000 nM | ≥ 5000 nM | ≥ 5000 nM |  |  |  |  |
| Cc1nc(-c2ccc(-c3cc4cnc(NC5CCOCC5)nc4n(CC(=O)NCCCN)c3=O)c(Cl)c2)no1 | < 50 nM | 500 to 5000 nM | ≥ 5000 nM |  |  |  |  |
| CCn1c(=O)c(-c2ccc(-c3noc(C)n3)cc2Cl)cc2cnc(NCCCO)nc21 | 50 to 500 nM | ≥ 5000 nM | ≥ 5000 nM |  |  |  |  |
| Cc1nc(-c2ccc(-c3cc4cnc(NC5CCOCC5)nc4n(C4CCN(C5CCNCC5)C4)c3=O)c(Cl)c2)no1 (stereo not shown) | 50 to 500 nM | ≥ 5000 nM | ≥ 5000 nM |  |  |  |  |
| CCn1c(=O)c(-c2ccc(-c3noc(C)n3)cc2Cl)cc2cnc(NCCCOC)nc21 | 500 to 5000 nM | ≥ 5000 nM | ≥ 5000 nM |  |  |  |  |
| Cc1nc(-c2ccc(-c3cc4cnc(NC5CCOCC5)nc4n(CC4CCCN(C)C4)c3=O)c(Cl)c2)no1 (stereo not shown) | 50 to 500 nM | ≥ 5000 nM | ≥ 5000 nM |  |  |  |  |
| CCn1c(=O)c(-c2ccc(-c3noc(C)n3)cc2Cl)cc2cnc(NCC(=O)NC)nc21 | 500 to 5000 nM | ≥ 5000 nM | ≥ 5000 nM |  |  |  |  |
| Cc1nc(-c2ccc(-c3cc4cnc(NC5CCOCC5)nc4n(CC4CCN(C)CC4)c3=O)c(Cl)c2)no1 | 50 to 500 nM | ≥ 5000 nM | ≥ 5000 nM |  |  |  |  |
| CCn1c(=O)c(-c2ccc(-c3noc(C)n3)cc2Cl)cc2cnc(NCc3ccncc3)nc21 | 50 to 500 nM | ≥ 5000 nM | ≥ 5000 nM |  |  |  |  |
| CCn1c(=O)c(-c2ccc(-c3cnccn3)cc2Cl)cc2cnc(N[C@@H]3CCOC3)nc21 [Example 60] |  |  |  | 50 to 500 nM | 50 to 500 nM | 500 to 5000 nM | > 5000 nM |
| CCn1c(=O)c(-c2ccc(-c3cccnc3)cc2Cl)cc2cnc(N[C@@H]3CCOC3)nc21 [Example 51] |  |  |  | 50 to 500 nM | 50 to 500 nM | 500 to 5000 nM | > 5000 nM |
| CCn1c(=O)c(-c2ccc(-c3nccnc3C)cc2C)cc2cnc(NC3CCOCC3)nc21 [Example 1, 8-ethyl-6-(2-methyl-4-(3-methylpyrazin-2-yl)phenyl)-2-(tetrahydro-2H-pyran-4-ylamino)pyrido[2,3-d]pyrimidin-7(8H)-one] |  |  |  | 50 to 500 nM | 50 to 500 nM | 50 to 500 nM | > 5000 nM |
| CCn1c(=O)c(-c2ccc(-c3nccnc3C)cc2Cl)cc2cnc(NC3CCOC(C)(C)C3)nc21 (racemic) [Example 30] |  |  |  | < 50 nM | < 50 nM | < 50 nM | > 5000 nM |
| Cc1cnc(-c2ccc(-c3cc4cnc(NC5CCOCC5)nc4n(Cc4ccccc4C(F)(F)F)c3=O)c(Cl)c2)s1 [Example 26] |  |  |  | 50 to 500 nM | 50 to 500 nM | 50 to 500 nM | > 5000 nM |
| CCn1c(=O)c(-c2ccc(-c3noc(C)n3)cc2Cl)cc2cnc(NC3CCOCC3)nc21 [Example 4] |  |  |  | 50 to 500 nM | 50 to 500 nM | 50 to 500 nM | > 5000 nM |
| 6-(2-chloro-4-(5-methyl-1,2,4-oxadiazol-3-yl)phenyl)-2-(4-(1-methylpiperidin-4-yl)phenylamino)pyrido[2,3-d]pyrimidin-7(8H)-one [Example 95] |  |  |  | 50 to 500 nM | 50 to 500 nM | 500 to 5000 nM | > 5000 nM |
| CCNc1ncc2cc(-c3ccc(-c4cncc(C)n4)cc3Cl)c(=O)n([C@H]3CC[C@H](N)CC3)c2n1 [Example 117] |  |  |  | < 50 nM | < 50 nM | < 50 nM | 500 to 5000 nM |
| CCn1c(=O)c(-c2ccc(-c3cncc(C)n3)cc2Cl)cc2cnc(NCCCOCCCN(C)C)nc21 [Example 130] |  |  |  | 50 to 500 nM | 50 to 500 nM | 50 to 500 nM | > 5000 nM |
| CCn1c(=O)c(-c2ccc(-c3cnccc3C)cc2Cl)cc2cnc(N[C@@H]3CCOC3)nc21 [Example 49] |  |  |  | 50 to 500 nM | 500 to 5000 nM | 500 to 5000 nM | > 5000 nM |
